Test results from paper PMC9977398, “Next-generation membrane-active glycopeptide antibiotics that also inhibit bacterial cell division” (Chemical Science, 2023).
≈ marks a conversion by molar mass, not a printed value. Where two headings read alike, the source gives them in different places.

Assays:
[1] = test system: VRSA 12 (vancomycin-resistant S. aureus); assay: MIC determination, micro-dilution broth; format: cell-based; conditions: Staphylococcus aureus, read-out: Minimum inhibitory concentration, VRSA 12
Description: (§1) The increase in the carbon content of substituted moieties from six (1) to seven (2 and 3) to ten (5) to twelve (4), increased activity. […]
(§2) Test compound was assayed in a micro -dilution broth format as per the CLSI guideline. The bacterial freeze dried stock samples were stored at -80 °C. About 5 μL of these stocks were added to 3 mL of the respective broth and the culture was grown for 6 h at 37°C with prior to the experiments. This 6 h grown culture was diluted to give effective cell concentration of 10 5 CFU/mL which was then used for determining MIC. Compounds were serially diluted 2 -fold, in sterile millipore water and 50 μL of these serial dilutions were added to the wells of 96 well plate followed by the addition of about 150 μL of bacterial solution. The plates were then incubated for 18-24 h at 37 °C. The O.D. value at 600 nm was recorded using TECAN (Infinite series, M200 pro) Plate Reade r. Each concentration had triplicate values and the whole experiment was done at least twice and the MIC value was determined by taking the average of triplicate O. D. values for each concentration and plotting it against concentration. The data was then subjected to sigmoidal fitting. From the curve the MIC value was determined, as the point where the O. D. was similar to that of control having no bacteria.

[2] = test system: MRSA, methicillin-resistant S. aureus (ATCC 33591); assay: MIC determination, micro-dilution broth; format: cell-based; conditions: Staphylococcus aureus; MRSA ATCC 33591; read-out: Minimum inhibitory concentration, MRSA
Description: as §1, §2

[3] = test system: VRSA 4 (vancomycin-resistant S. aureus); assay: MIC determination, micro-dilution broth; format: cell-based; conditions: Staphylococcus aureus, read-out: Minimum inhibitory concentration, VRSA 4
Description: as §1, §2

[4] = test system: PA R590 (MDR strain of P. aeruginosa); assay: MIC determination, micro-dilution broth; format: cell-based; conditions: Pseudomonas aeruginosa; read-out: Minimum inhibitory concentration, PA R590
Description: as §1, §2

[5] = test system: AB 1425 (A. baumannii MTCC 1425); assay: MIC determination, micro-dilution broth; format: cell-based; conditions: Acinetobacter baumannii, MTCC1425; read-out: Minimum inhibitory concentration, AB 1425
Description: as §1, §2

[6] = test system: VRSA 1 (vancomycin-resistant S. aureus); assay: MIC determination, micro-dilution broth; format: cell-based; conditions: Staphylococcus aureus, read-out: Minimum inhibitory concentration, VRSA 1
Description: as §1, §2

AB R674 (A. baumannii) = assay: MIC determination, micro-dilution broth; format: cell-based; conditions: Acinetobacter baumannii; read-out: Minimum inhibitory concentration, AB R674
Description: as §1, §2

[7] = test system: VRE 51559 (vancomycin-resistant E. faecium, VanA phenotype, ATCC 51559); assay: MIC determination, micro-dilution broth; format: cell-based; conditions: Enterococcus; read-out: Minimum inhibitory concentration, VRE 51559
Description: as §1, §2

[8] = test system: VRE 51575 (vancomycin-resistant E. faecalis, VanB phenotype, ATCC 51575); assay: MIC determination, micro-dilution broth; format: cell-based; conditions: Enterococcus; read-out: Minimum inhibitory concentration, VRE 51575
Description: as §1, §2

human erythrocytes = assay: Haemolysis assay; format: cell-based
Description: To select the lead compounds, the toxicity of 1–10 was tested against human erythrocytes as their hemolytic activity (HC50). The HC50 is determined as the concentration at which 50% of the compound treated cells are lysed. […] The HC50 for compounds 6–8 was also greater than 500 μM. […] Based on the in vitro activity and hemolysis studies, VanQbiph (4) from the aryl-substituted compounds and VanQAmC10 (8) from the alkyl-chain substituted compounds were selected for further investigations. […] VanQAmC10 (8) was additionally non-toxic to RAW 264.7 cells up to 40 μM and was therefore taken forward in vivo investigation.[18]
50 μL of serially diluted compound was added into 96 well microtiter plates. Freshly drawn, heparanized human blood was centrifuged down to obtain the erythrocytes and re-suspended to 5 vol % in PBS (pH 7.4). 150 μL of the erythrocyte suspension was added to the serially diluted compounds (from 500 µM to 2 µM). One set without compound and other with 50 μL of 1 vol % solution of Triton X-100 were kept as controls. The plates were incubated at 37 °C for 1 h followed by centrifugation at 3,500 rpm for 5 min. 100 μL of the supernatant from each well were transferred into fresh microtiter plates, and A540 was measured.
% haemolysis = (A - A0)/(Atotal -A0) × 100, where A is the absorbance of the test well, A 0 the absorbance of the negative controls (without compound), and A total the absorbance of 100 % hemolysis wells (with Triton X -100), all at 540 nm. […]

VRE (VanA phenotype) = test system: VRE (VanA phenotype); parameters: method as in PMID 27663982, PMID 24846441, PMID 14972384; conditions: cited from earlier work

Compound	MIC [1]	MIC [2]	MIC [3]	MIC [4]	MIC [5]	MIC [6]	MIC (AB R674 (A. baumannii))	MIC [7]	MIC [8]	HC50 (human erythrocytes)	HC50 (human erythrocytes; human, 1 h, pH 7.4)	MIC against VRE (VanA phenotype) (VRE (VanA phenotype))
CCCCCCCCCCCCNC(=O)C[N+](C)(C)CCCNC(=O)C1NC(=O)C2NC(=O)C(NC(=O)C3NC(=O)C(CC(N)=O)NC(=O)C(NC(=O)C(CC(C)C)NC)C(O)c4ccc(c(Cl)c4)Oc4cc3cc(c4OC3OC(CO)C(O)C(O)C3OC3CC(C)(N)C(O)C(C)O3)Oc3ccc(cc3Cl)C2O)c2ccc(O)c(c2)-c2c(O)cc(O)cc21 (stereo not shown) [VanQAmC12 (9)]	3 µM	3.12 µM	0.7 µM	6.3 µM	6.3 µM	1.5 µM	6.3 µM	1.5 µM	3.1 µM	caused hemolysis	350 µM	–
CN[C@H]1C(=O)N[C@@H]2Cc3ccc(cc3)Oc3cc4cc(c3O[C@@H]3O[C@H](C(=O)O)[C@@H](O)[C@H](O)[C@H]3NC(=O)CCCCCCCCC(C)C)Oc3ccc(cc3Cl)[C@@H](O)[C@@H]3NC(=O)[C@H](NC(=O)[C@@H]4NC(=O)[C@@H](NC2=O)c2cc(cc(O)c2Cl)Oc2cc1ccc2O)c1ccc(O)c(c1)-c1c(O[C@H]2O[C@H](CO)[C@@H](O)[C@H](O)[C@@H]2O)cc(O)cc1[C@@H](C(=O)NCCCN(C)C)NC3=O [dalbavancin]	–	–	–	–	–	–	–	–	–	–	–	18 µM (≈ 32.7 µg/mL)
CCCCCCNC(=O)C[N+](C)(C)CCCNC(=O)C1NC(=O)C2NC(=O)C(NC(=O)C3NC(=O)C(CC(N)=O)NC(=O)C(NC(=O)C(CC(C)C)NC)C(O)c4ccc(c(Cl)c4)Oc4cc3cc(c4OC3OC(CO)C(O)C(O)C3OC3CC(C)(N)C(O)C(C)O3)Oc3ccc(cc3Cl)C2O)c2ccc(O)c(c2)-c2c(O)cc(O)cc21 (stereo not shown) [VanQAmC6 (6)]	> 30 µM	0.8 µM	6.3 µM	12.5 µM	25 µM	> 30 µM	12.5 µM	25 µM	> 30 µM	–	>500 µM	–
CN[C@H](CC(C)C)C(=O)N[C@H]1C(=O)N[C@@H](CC(N)=O)C(=O)N[C@H]2C(=O)N[C@H]3C(=O)N[C@H](C(=O)N[C@H](C(=O)O)c4cc(O)cc(O)c4-c4cc3ccc4O)[C@H](O[C@H]3C[C@](C)(N)[C@@H](O)[C@H](C)O3)c3ccc(c(Cl)c3)Oc3cc2cc(c3O[C@@H]2O[C@H](CO)[C@@H](O)[C@H](O)[C@H]2O[C@H]2C[C@](C)(NCc3ccc(-c4ccc(Cl)cc4)cc3)[C@@H](O)[C@H](C)O2)Oc2ccc(cc2Cl)[C@H]1O [oritavancin]	–	–	–	–	–	–	–	–	–	–	–	0.14 µM (≈ 0.251 µg/mL)
CCCCCCCCNC(=O)C[N+](C)(C)CCCNC(=O)C1NC(=O)C2NC(=O)C(NC(=O)C3NC(=O)C(CC(N)=O)NC(=O)C(NC(=O)C(CC(C)C)NC)C(O)c4ccc(c(Cl)c4)Oc4cc3cc(c4OC3OC(CO)C(O)C(O)C3OC3CC(C)(N)C(O)C(C)O3)Oc3ccc(cc3Cl)C2O)c2ccc(O)c(c2)-c2c(O)cc(O)cc21 (stereo not shown) [VanQAmC8 (7)]	> 30 µM	0.8 µM	3.1 µM	6.3 µM	12.5 µM	3.1 µM	12.5 µM	12.5 µM	25 µM	–	>500 µM	–
CCCCCCCCCCCCCCNC(=O)C[N+](C)(C)CCCNC(=O)C1NC(=O)C2NC(=O)C(NC(=O)C3NC(=O)C(CC(N)=O)NC(=O)C(NC(=O)C(CC(C)C)NC)C(O)c4ccc(c(Cl)c4)Oc4cc3cc(c4OC3OC(CO)C(O)C(O)C3OC3CC(C)(N)C(O)C(C)O3)Oc3ccc(cc3Cl)C2O)c2ccc(O)c(c2)-c2c(O)cc(O)cc21 (stereo not shown) [VanQAmC14 (10)]	3 µM	6.25 µM	1.5 µM	6.3 µM	6.3 µM	3 µM	12.5 µM	1.5 µM	3.1 µM	caused hemolysis	150 µM	–
CNC(CC(C)C)C(=O)NC1C(=O)NC(CC(N)=O)C(=O)NC2C(=O)NC3C(=O)NC(C(=O)NC(C(=O)NCCC[N+](C)(C)Cc4cccc5ccccc45)c4cc(O)cc(O)c4-c4cc3ccc4O)C(O)c3ccc(c(Cl)c3)Oc3cc2cc(c3OC2OC(CO)C(O)C(O)C2OC2CC(C)(N)C(O)C(C)O2)Oc2ccc(cc2Cl)C1O (stereo not shown) [VanQnaph (5)]	> 30 µM	1 µM	3.9 µM	> 30 µM	> 30 µM	> 30 µM	24.8 µM	25 µM	25 µM	–	>500 µM	–
CCCCCCCCCCNCCN[C@@]1(C)C[C@H](O[C@H]2[C@H](Oc3c4cc5cc3Oc3ccc(cc3Cl)[C@@H](O)[C@@H](NC(=O)[C@@H](CC(C)C)NC)C(=O)N[C@@H](CC(N)=O)C(=O)N[C@H]5C(=O)N[C@H]3C(=O)N[C@H](C(=O)N[C@H](C(=O)O)c5cc(O)c(CNCP(=O)(O)O)c(O)c5-c5cc3ccc5O)[C@H](O)c3ccc(c(Cl)c3)O4)O[C@H](CO)[C@@H](O)[C@@H]2O)O[C@@H](C)[C@H]1O [telavancin]	–	–	–	–	–	–	–	–	–	–	–	4 µM (≈ 7.02 µg/mL)
CNC(CC(C)C)C(=O)NC1C(=O)NC(CC(N)=O)C(=O)NC2C(=O)NC3C(=O)NC(C(=O)NC(C(=O)NCCC[N+](C)(C)Cc4ccc(C)cc4)c4cc(O)cc(O)c4-c4cc3ccc4O)C(O)c3ccc(c(Cl)c3)Oc3cc2cc(c3OC2OC(CO)C(O)C(O)C2OC2CC(C)(N)C(O)C(C)O2)Oc2ccc(cc2Cl)C1O (stereo not shown) [VanQtol (2)]	> 30 µM	1 µM	16 µM	> 30 µM	> 30 µM	> 30 µM	25.3 µM	> 30 µM	> 30 µM	–	>500 µM	–
CNC(CC(C)C)C(=O)NC1C(=O)NC(CC(N)=O)C(=O)NC2C(=O)NC3C(=O)NC(C(=O)NC(C(=O)NCCC[N+](C)(C)Cc4ccccc4)c4cc(O)cc(O)c4-c4cc3ccc4O)C(O)c3ccc(c(Cl)c3)Oc3cc2cc(c3OC2OC(CO)C(O)C(O)C2OC2CC(C)(N)C(O)C(C)O2)Oc2ccc(cc2Cl)C1O (stereo not shown) [VanQph (1)]	> 30 µM	1 µM	> 30 µM	> 30 µM	> 30 µM	> 30 µM	25.5 µM	> 30 µM	> 30 µM	–	>500 µM	–
CNC(CC(C)C)C(=O)NC1C(=O)NC(CC(N)=O)C(=O)NC2C(=O)NC3C(=O)NC(C(=O)NC(C(=O)NCCC[N+](C)(C)Cc4ccc(C(F)(F)F)cc4)c4cc(O)cc(O)c4-c4cc3ccc4O)C(O)c3ccc(c(Cl)c3)Oc3cc2cc(c3OC2OC(CO)C(O)C(O)C2OC2CC(C)(N)C(O)C(C)O2)Oc2ccc(cc2Cl)C1O (stereo not shown) [VanQphCF3 (3)]	> 30 µM	1 µM	15.8 µM	24.6 µM	> 30 µM	> 30 µM	24.6 µM	> 30 µM	> 30 µM	–	>500 µM	–
